Experimental data taken from ChEMBL document CHEMBL1201862, “PubChem BioAssay data set” (2004).
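Following 48 hours of exposure in 96-well plates, responses at five concentrations were used to interpolate endpoints linearly. The concentration for 50% growth inhibition is given as GI50.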 Calls of active or inactive are those of the source. No stated cut-off is given here; in the data, active = GI50 up to about 1.1 µM and inactive = higher.

Tests used:
Test in all cases: NCI-60 cell line screen, 48 h
[1] = system: HCT-15
[2] = system: MOLT-4
[3] = system: IGROV-1
[4] = system: NCI-H522
[5] = system: MCF7
[6] = system: EKVX
[7] = system: SNB-19
[8] = system: SF-295
[9] = system: KM12
[10] = system: Malme-3M
[11] = system: SF-268
[12] = system: COLO 205
[13] = system: RXF 393
[14] = system: OVCAR-4
[15] = system: OVCAR-3
[16] = system: HOP-92
[17] = system: MDA-MB-231
[18] = system: PC-3
[19] = system: T47D

Row | SMILES | GI50 [1] | GI50 [2] | GI50 [3] | GI50 [4] | GI50 [5] | GI50 [6] | GI50 [7] | GI50 [8] | GI50 [9] | GI50 [10] | GI50 [11] | GI50 [12] | GI50 [13] | GI50 [14] | GI50 [15] | GI50 [16] | GI50 [17] | GI50 [18] | GI50 [19]
1 | Oc1cc(O)cc(/C=C/c2ccc(O)c(O)c2)c1 [PICEATANNOL] | 5.9 µM | 5.51 µM (inactive) | 9.64 µM (inactive) | 2.75 µM (inactive) | 20.1 µM (inactive) | 28.2 µM (inactive) | 24.8 µM (inactive) | 16.5 µM (inactive) | 3.52 µM (inactive) | 26.1 µM (inactive) | 8.59 µM (inactive) | 23.3 µM (inactive) | 8.77 µM (inactive) | 15.5 µM (inactive) | 25.8 µM (inactive) | 12.3 µM (inactive) |  |  | 
2 | O=C1C=C2SC3C[C@@]24CC1[N+]1=c2c4c(c(O)c4c2=C(C=N4)CC1)N3 | 3.4 µM | 1.53 µM (inactive) | 2.44 µM (inactive) | 1.58 µM (inactive) | 2.08 µM (inactive) | 2.27 µM (inactive) | 5.31 µM (inactive) | 3.43 µM (inactive) | 2.13 µM (inactive) | 1.85 µM (inactive) | 1.45 µM (inactive) | 1.91 µM (inactive) | 1.99 µM (inactive) | 1.66 µM (inactive) | 0.938 µM (active) | > 100 µM (inactive) |  |  | 
3 | Cc1cc(-c2cccc3ccccc23)c(C#N)c(=S)n1C1OC(CO)C(O)C(O)C1O (stereo unspecified) | > 100 µM | > 100 µM (inactive) | > 100 µM (inactive) |  | > 100 µM (inactive) | > 100 µM (inactive) |  | > 100 µM (inactive) | > 100 µM (inactive) | > 100 µM (inactive) |  | > 100 µM (inactive) | > 100 µM (inactive) | 60.3 µM (inactive) | > 100 µM (inactive) |  | > 100 µM (inactive) | > 100 µM (inactive) | 52.7 µM (inactive)
4 | COc1cc2c(cc1OC)C(C(c1ccccc1)c1ccccc1)N(C)CC2 (stereo unspecified) | > 100 µM | 38.3 µM (inactive) | 70.6 µM (inactive) | 74.1 µM (inactive) | 52.4 µM (inactive) | > 100 µM (inactive) | > 100 µM (inactive) | > 75.9 µM (inactive) | > 100 µM (inactive) | 23.8 µM (inactive) | > 100 µM (inactive) | 16.1 µM (inactive) | 20 µM (inactive) | > 94 µM (inactive) | > 84.7 µM (inactive) | 29.2 µM (inactive) |  |  | 
5 | NNC(=O)/C(NC(=O)c1ccccc1)=C(\N)c1ccc(Cl)cc1 | > 100 µM | 28.3 µM (inactive) | > 100 µM (inactive) | 61.1 µM (inactive) |  | > 100 µM (inactive) | > 100 µM (inactive) | > 100 µM (inactive) | > 100 µM (inactive) | > 100 µM (inactive) | > 100 µM (inactive) | > 100 µM (inactive) | > 100 µM (inactive) | > 100 µM (inactive) | > 100 µM (inactive) | > 100 µM (inactive) |  |  | 
6 | O=C(O)CCC(NC(=O)c1ccc(Nc2nc3cc(C(F)(F)F)ccc3nc2-c2ccccc2)cc1)C(=O)O (stereo unspecified) | 60.3 µM | 44.6 µM (inactive) | > 100 µM (inactive) | 35.6 µM (inactive) | 64.9 µM (inactive) | > 100 µM (inactive) | > 100 µM (inactive) | 20.4 µM (inactive) | 45.9 µM (inactive) | > 100 µM (inactive) | > 100 µM (inactive) | > 55.7 µM (inactive) | 26.5 µM (inactive) | 31.3 µM (inactive) | > 100 µM (inactive) | > 52.6 µM (inactive) |  |  | 
7 | CC1CN=C(Nc2ccc(F)cc2F)S1 (stereo unspecified) | > 100 µM | > 100 µM (inactive) | > 100 µM (inactive) |  | > 100 µM (inactive) | 75 µM (inactive) | > 100 µM (inactive) | > 100 µM (inactive) | > 100 µM (inactive) | > 100 µM (inactive) | > 100 µM (inactive) | > 100 µM (inactive) |  | > 100 µM (inactive) | > 100 µM (inactive) | 15.6 µM (inactive) | > 100 µM (inactive) | > 100 µM (inactive) | 88.9 µM (inactive)
